In patent US10053454B2 (Bristol-Myers Squibb Company, priority 2013, dated 2018):

Target: BRD4 (Homo sapiens, UniProt O60885)
Test: Time Resolved Fluorescence Resonance Energy Transfer (TR-FRET) binding assay
Conditions: one of the FRET assays described (BRD4 construct not given)

Row | Structure (SMILES) | IC50 [nM]
1 | Cc1noc(C)c1-c1cc(C(N)=O)c2c(c1)c1ccc(-c3ccncc3)cc1n2CC1CC1 [Example 36, 9-(cyclopropylmethyl)-3-(3,5-dimethyl-4-isoxazolyl)-7-(4-pyridinyl)-9H-carbazole-1-carboxamide] | < 500
2 | CNc1ccc2c3cc(-c4c(C)noc4C)cc(C(N)=O)c3n(CC3CC3)c2c1 [Example 37, 9-(cyclopropylmethyl)-3-(3,5-dimethyl-4-isoxazolyl)-7-(methylamino)-9H-carbazole-1-carboxamide] | < 500
3 | Cc1noc(C)c1-c1cc(C(N)=O)c2c(c1)c1ccc(N(C)C)cc1n2CC1CC1 [Example 38, 9-(cyclopropylmethyl)-7-(dimethylamino)-3-(3,5-dimethyl-4-isoxazolyl)-9H-carbazole-1-carboxamide] | < 50
4 | Cc1noc(C)c1-c1cc(C(N)=O)c2c(c1)c1ccc(NCC3CCCC3)cc1n2CC1CC1 [Example 39, 7-(cyclopentylmethylamino)-9-(cyclopropylmethyl)-3-(3,5-dimethyl-4-isoxazolyl)-9H-carbazole-1-carboxamide] | < 500
5 | CC(=O)N(C)c1ccc2c3cc(-c4c(C)noc4C)cc(C(N)=O)c3n(CC3CC3)c2c1 [Example 40, 7-(acetyl(methyl)amino)-9-(cyclopropylmethyl)-3-(3,5-dimethyl-4-isoxazolyl)-9H-carbazole-1-carboxamide] | < 50
6 | Cc1noc(C)c1-c1cc(C(N)=O)c2c(c1)c1ccc(N3CCCCC3=O)cc1n2CC1CC1 [Example 42, 9-(cyclopropylmethyl)-3-(3,5-dimethyl-4-isoxazolyl)-7-(2-oxo-1-piperidinyl)-9H-carbazole-1-carboxamide] | < 500
7 | Cc1noc(C)c1-c1cc(C(N)=O)c2c(c1)c1ccc(N3CCCOC3=O)cc1n2CC1CC1 [Example 43, 9-(cyclopropylmethyl)-3-(3,5-dimethyl-4-isoxazolyl)-7-(2-oxo-1,3-oxazinan-3-yl)-9H-carbazole-1-carboxamide] | < 50
8 | Cc1noc(C)c1-c1cc(C(N)=O)c2c(c1)c1ccc(N3CCOC3=O)cc1n2CC1CC1 [Example 45, 9-(cyclopropylmethyl)-3-(3,5-dimethyl-4-isoxazolyl)-7-(2-oxo-1,3-oxazolidin-3-yl)-9H-carbazole-1-carboxamide] | < 500
9 | Cc1noc(C)c1-c1cc(C(N)=O)c2c(c1)c1ccc(CO)cc1n2CC1CC1 [Example 46, 9-(cyclopropylmethyl)-3-(3,5-dimethyl-4-isoxazolyl)-7-(hydroxymethyl)-9H-carbazole-1-carboxamide] | < 500
10 | Cc1noc(C)c1-c1cc(C(N)=O)c2c(c1)c1ccc(C=O)cc1n2CC1CC1 [Example 47, 9-(cyclopropylmethyl)-3-(3,5-dimethyl-4-isoxazolyl)-7-formyl-9H-carbazole-1-carboxamide] | < 500
11 | Cc1noc(C)c1-c1cc(C(N)=O)c2c(c1)c1ccc(O)cc1n2CC1CC1 [Example 48, 9-(cyclopropylmethyl)-3-(3,5-dimethyl-4-isoxazolyl)-7-hydroxy-9H-carbazole-1-carboxamide] | < 500
12 | COc1ccc2c3cc(-c4c(C)noc4C)cc(C(N)=O)c3n(CC3CC3)c2c1 [Example 49, 9-(cyclopropylmethyl)-3-(3,5-dimethyl-4-isoxazolyl)-7-methoxy-9H-carbazole-1-carboxamide] | < 50
13 | Cc1noc(C)c1-c1cc(C(N)=O)c2c(c1)c1ccc(OC(=O)N3CCOCC3)cc1n2CC1CC1 [Example 50, 8-carbamoyl-9-(cyclopropylmethyl)-6-(3,5-dimethyl-4-isoxazolyl)-9H-carbazol-2-yl morpholine-4-carboxylate] | < 500
14 | Cc1noc(C)c1-c1cc(C(N)=O)c2c(c1)c1ccc(CN3CCOCC3)cc1n2CC1CC1 [Example 51, 9-(cyclopropylmethyl)-3-(3,5-dimethyl-4-isoxazolyl)-7-(4-morpholinylmethyl)-9H-carbazole-1-carboxamide] | < 500
15 | Cc1noc(C)c1-c1cc(C(N)=O)c2c(c1)c1ccc(C(C)(C)N3CCOCC3)cc1n2CC1CC1 [Example 52, 9-(cyclopropylmethyl)-3-(3,5-dimethyl-4-isoxazolyl)-7-(1-methyl-1-(4-morpholinyl)ethyl)-9H-carbazole-1-carboxamide] | < 50
16 | Cc1noc(C)c1-c1cc(C(N)=O)c2c(c1)c1ccc(C(C)(C)O)cc1n2CC1CC1 [Example 53, 9-(cyclopropylmethyl)-3-(3,5-dimethyl-4-isoxazolyl)-7-(1-hydroxy-1-methylethyl)-9H-carbazole-1-carboxamide] | < 500
17 | Cc1noc(C)c1-c1cc(C(N)=O)c2c(c1)c1ccc(C(C)(C)O)cc1n2S(=O)(=O)C1CC1 [Example 55, 9-(cyclopropylsulfonyl)-3-(3,5-dimethyl-4-isoxazolyl)-7-(1-hydroxy-1-methylethyl)-9H-carbazole-1-carboxamide] | < 50
18 | Cc1nocc1-c1cc(C(N)=O)c2c(c1)c1ccc(C(=O)N3C[C@@H](C)O[C@@H](C)C3)cc1n2CC1CC1 [Example 56, 9-(cyclopropylmethyl)-7-((cis-2,6-dimethyl-4-morpholinyl)carbonyl)-3-(3-methyl-4-isoxazolyl)-9H-carbazole-1-carboxamide] | < 500

Row | Structure (SMILES) | IC50 [nM]
19 | Cc1oncc1-c1cc(C(N)=O)c2c(c1)c1ccc(C(=O)N3C[C@@H](C)O[C@@H](C)C3)cc1n2CC1CC1 [Example 57, 9-(cyclopropylmethyl)-7-((cis-2,6-dimethyl-4-morpholinyl)carbonyl)-3-(5-methyl-4-isoxazolyl)-9H-carbazole-1-carboxamide] | < 500
20 | Cc1noc(C)c1-c1cc(C#N)c2[nH]c3cc(C(=O)N4CCOCC4)ccc3c2c1 [Example 58, 3-(3,5-dimethyl-4-isoxazolyl)-7-(4-morpholinylcarbonyl)-9H-carbazole-1-carbonitrile] | < 5000
21 | Cc1noc(C)c1-c1cc(C#N)c2c(c1)c1ccc(C(=O)N3CCOCC3)cc1n2CC1CC1 [Example 59, 9-(cyclopropylmethyl)-3-(3,5-dimethyl-4-isoxazolyl)-7-(4-morpholinylcarbonyl)-9H-carbazole-1-carbonitrile] | < 5000
22 | CC(=O)n1c2cc(C(=O)N3C[C@@H](C)O[C@@H](C)C3)ccc2c2cc(-c3c(C)noc3C)cc(C(N)=O)c21 [Example 60, 9-acetyl-3-(3,5-dimethyl-4-isoxazolyl)-7-(cis-2,6-dimethylmorpholine-4-carbonyl)-9H-carbazole-1-carboxamide] | < 5000
23 | CCNC(=O)n1c2cc(C(=O)N3C[C@@H](C)O[C@@H](C)C3)ccc2c2cc(-c3c(C)noc3C)cc(C(N)=O)c21 [Example 61, 3-(3,5-dimethyl-4-isoxazolyl)-7-(cis-2,6-dimethylmorpholine-4-carbonyl)-N9-ethyl-9H-carbazole-1,9-dicarboxamide] | < 5000
24 | Cc1cnc(-c2cc(-c3c(C)noc3C)cc3c2[nH]c2cc(C(=O)N4CCOCC4)ccc23)o1 [Example 62, 3-(3,5-dimethyl-4-isoxazolyl)-1-(5-methyl-1,3-oxazol-2-yl)-7-(4-morpholinylcarbonyl)-9H-carbazole] | < 5000
25 | Cc1noc(C)c1-c1cc(C(N)=S)c2[nH]c3cc(C(=S)N4CCOCC4)ccc3c2c1 [Example 63, 3-(3,5-dimethyl-4-isoxazolyl)-7-(4-morpholinylcarbonothioyl)-9H-carbazole-1-carbothioamide] | < 500
26 | Cc1noc(C)c1-c1cc(C(N)=S)c2[nH]c3cc(C(=O)N4CCOCC4)ccc3c2c1 [Example 64, 3-(3,5-dimethyl-4-isoxazolyl)-7-(4-morpholinylcarbonyl)-9H-carbazole-1-carbothioamide] | < 5000
27 | Cc1csc(-c2cc(-c3c(C)noc3C)cc3c2[nH]c2cc(C(=O)N4CCOCC4)ccc23)n1 [Example 65] | < 5000
28 | CCn1c2cc(C(=O)N3CCOCC3)ccc2c2cc(-c3c(C)noc3C)cc(C(N)=S)c21 [Example 67, 3-(3,5-dimethyl-4-isoxazolyl)-9-ethyl-7-(4-morpholinylcarbonyl)-9H-carbazole-1-carbothioamide] | < 500
29 | Cc1noc(C)c1-c1cc(C(N)=S)c2c(c1)c1ccc(C(=O)N3CCOCC3)cc1n2CC1CC1 [Example 68, 9-(cyclopropylmethyl)-3-(3,5-dimethyl-4-isoxazolyl)-7-(4-morpholinylcarbonyl)-9H-carbazole-1-carbothioamide] | < 5000
30 | Cc1noc(C)c1-c1cc(-c2nc[nH]n2)c2[nH]c3cc(C(=O)N4CCOCC4)ccc3c2c1 [Example 69, 3-(3,5-dimethyl-4-isoxazolyl)-7-(4-morpholinylcarbonyl)-1-(1H-1,2,4-triazol-3-yl)-9H-carbazole] | < 500
31 | Cc1noc(C)c1-c1cc(-c2nc[nH]n2)c2c(c1)c1ccc(C(=O)N3CCOCC3)cc1n2CC1CC1 [Example 70, 9-(cyclopropylmethyl)-3-(3,5-dimethyl-4-isoxazolyl)-7-(4-morpholinylcarbonyl)-1-(1H-1,2,4-triazol-3-yl)-9H-carbazole] | < 5000
32 | Cc1noc(C)c1-c1cc(C(N)=O)c2c(c1)c1ccc(N3CCCS3(=O)=O)cc1n2CC1CC1 [Example 71, 9-(cyclopropylmethyl)-3-(3,5-dimethyl-4-isoxazolyl)-7-(1,1-dioxido-2-isothiazolidinyl)-9H-carbazole-1-carboxamide] | < 50
33 | COc1ccc2c(c1)c1cc(-c3c(C)noc3C)cc(C(N)=O)c1n2S(C)(=O)=O [Example 72, 3-(3,5-dimethylisoxazol-4-yl)-6-methoxy-9-(methylsulfonyl)-9H-carbazole-1-carboxamide] | < 500
34 | Cc1noc(C)c1-c1cc(C(N)=O)c2c(c1)c1c(C(=O)N3C[C@@H](C)O[C@@H](C)C3)cc(C(F)(F)F)cc1n2S(C)(=O)=O [Example 73, 3-(3,5-dimethyl-4-isoxazolyl)-5-((cis-2,6-dimethyl-4-morpholinyl)carbonyl)-9-(methylsulfonyl)-7-(trifluoromethyl)-9H-carbazole-1-carboxamide] | < 500
35 | Cc1noc(C)c1-c1cc(C(N)=O)c2c(c1)c1c(C(=O)N3C[C@@H](C)O[C@@H](C)C3)cc(C(F)(F)F)cc1n2S(=O)(=O)C1CC1 [Example 74, 9-(cyclopropylsulfonyl)-3-(3,5-dimethyl-4-isoxazolyl)-5-((cis-2,6-dimethyl-4-morpholinyl)carbonyl)-7-(trifluoromethyl)-9H-carbazole-1-carboxamide] | < 500
